Source: US20100004333A1, “COMPOSITIONS AND METHODS FOR TREATING CARDIOVASCULAR DISORDERS” (priority 2004, published 2010)

Key:
[1] = system: New Zealand White rabbits; assay: Re-endothelialization and vascular reactivity after aortic balloon injury in rabbits; type: in vivo; details: for Endothelium-dependent relaxation (acetylcholine) / Tissue content of cGMP in response to acetylcholine: aortic rings six weeks after injury; for Endothelium-dependent relaxation (acetylcholine): FIG. 15c; for Tissue content of cGMP in response to acetylcholine: FIG. 15d; for Regeneration of endothelium (length covered by CD31+ cells) / Intima-to-media ratio at CD31-positive sites: six weeks after injury; for Regeneration of endothelium (length covered by CD31+ cells): FIG. 15b; for Intima-to-media ratio at CD31-positive sites: not shown
[2] = system: New Zealand White rabbits; assay: Rabbit aortic balloon-injury model with heme oxygenase blocked by tin protoporphyrin; type: in vivo; details: plus tin protoporphyrin 7.5 mg/kg i.p. every other day; for Ability to inhibit intimal thickening when heme oxygenase is blocked: nine weeks, FIG. 19a; for Ability to promote re-endothelialization when heme oxygenase is blocked: FIG. 19b; for Ability to inhibit vascular smooth muscle cell proliferation when heme oxygenase is blocked: FIG. 19c
Description: Inhibition of heme oxygenase activity. Three groups of male New Zealand White rabbits (n=6 per group) that were fed 100 g per day of normal chow±1% probucol or 0.02% DTBP (wt/wt) received intraperitoneal injection of tin protoporphyrin (SnPP, Frontier Scientific, 7.5 mg/kg) every other day as described in American Journal of Physiology, Heart and Circulatory Physiology 2000; 278:H623-H632 for the entire nine week duration of the experiment, with balloon injury at the end of week three and lesion assessment after a further six weeks.

[3] = Total aortic drug concentration in apoE−/− mice, 5 months; type: in vivo
From the text: ApoE−/− mouse model. Four groups of male apoE−/− mice (8-10 weeks, Animal Resources Centre, Perth, Australia) were fed a high fat diet based on Harlan Teklad diet TD88137±1% (wt/wt) probucol (96% purity, a gift from AstraZeneca, Sweden), 0.02% DTBP, or 0.02% BP (Polysciences, Warrington, Pa.) for 5 months. Tissue harvesting and analyses were done as described in Examples 1 and 3, using 15 and 10 mice of each group for biochemical and histological analyses, respectively. Histology and immunohistochemistry. Aortic lesion assessment was carried out at four sites (sinus, arch, thoracic and abdominal aorta) as described in Example 1. Immediately adjacent sections were employed for immunohistochemistry, using Mac-3 (macrophages, dilution 1:200, DAKO), PCNA (cell proliferation, dilution 1:500, DAKO) and anti-rat HO-1 monoclonal antibody (dilution 1:50, Santa Cruz) with avidin-biotin-horseradish peroxidase for signal detection (Vectorstain Elite ABC Kit, Vector Laboratories). Apoptosis was assessed using the TUNEL assay kit (Roche) according to the manufacture's instructions. Digital images were taken for quantitative morphometric analysis. Mac-3^+ areas were determined using Adobe Photoshop V6.0 by tracing. Total cell profiles, TUNEL^+ and PCNA^+ cells were counted manually at high magnification (40× objective). A single operator using coded samples performed all analyses blinded. Heme oxygenase. Heme oxygenase activity was determined in microsomes prepared from homogenized aortic tissue and assessed by HPLC as described in Circulation 2004, 110: 1855-1860. Statistics. All data are expressed as mean±SEM. One-way ANOVA and the student-Newman-Keul's test were used to evaluate differences between groups, with P<0.05 considered significant.

[4] = system: aortic rings from rabbits; type: cell-based, New Zealand White rabbits; details: for Protection of aortic rings from HOCl-induced loss of response to ACh: 10 min pre-incubation with 10, 25 or 100 μM, FIG. 7
Description: All other reagents were of the highest quality available. Buffers were routinely filtered, argon-flushed and stored at 4° C. prior to use. Solutions of HOCl were prepared freshly before use by diluting reagent HOCl (Aldrich) into phosphate buffer (250 mM, pH 7.0) and standardizing with ε235 nm˜100 M^−1cm^−1 (hypochlorous acid) and ε290 nm˜300 M^−1cm^−1 (hypochlorite), as described in Journal of Physical Chemistry 1966, 70:3798-3805. Animals: New Zealand White rabbits (2.5-3 kg) were obtained from a commercial farm (Wauchope, NSW Australia) and housed individually for the entire study period. […] Feed and water were provided ad libitum for a period of 4 weeks judged to be sufficient time for circulating drug levels to reach a maximum (data not shown). […] The local ethics committee approved the study. Vascular reactivity: Perfused rabbit aortas were harvested and vascular reactivity studies performed as described in Circulation 2003, 107:2031-2036. Briefly, within 2 h of isolation, ring segments ˜5 mm in length were mounted in a myobath system (World Precision Instruments, Sarasota, Fla.) containing 20 mL of Krebs solution aerated at 37° C. with 5% CO2(g), and the dilatory response of half maximally norepinephrine pre-constricted rings to incremental doses of ACh (10^−9-10^−5 mol/L) determined. Where indicated, reagent HOCl (final concentration 400 μM) was added to the Krebs solution and the rings incubated for 5 min prior to thorough washing, pre-constriction and assessment of vessel relaxation. In some studies rings were incubated with probucol or DTBP for 10 min, washed thoroughly and then exposed to HOCl prior to assessing endothelium-dependent relaxation. A maximum of three consecutive sequences of constriction/relaxation were performed for each ring. […] Probucol oxidation studies: Probucol is a highly lipophilic compound (partition coefficient between octanol and water=[…]) that readily distributes into lipoproteins. […] The aqueous phase was analyzed for the content of sulfate anion (SO4^2−) by ion exchange chromatography (see below). Analytical analyses: Probucol, DTBP, BP and DPQ were analyzed by gradient reversed-phase HPLC and quantified by peak area comparison with authentic standards. […] Other oxidation products resolved by this HPLC system were also quantified by peak area comparison, using analytically pure samples obtained from semi-preparative (LC-18, 20 mm×25 cm, 5 μm) fractionation of the reaction mixture. Isolated samples were dried under vacuum, re-dissolved to a known concentration and assessed for purity by analytical HPLC (LC-18, 4.6 mm×25 cm, 5 μm) in combination with mass spectrometry (see below). […]

Structure (SMILES)	Endothelium-dependent relaxation (acetylcholine) [1]	Tissue content of cGMP in response to acetylcholine [1]	Regeneration of endothelium (length covered by CD31+ cells) [1]	Intima-to-media ratio at CD31-positive sites [1]	Ability to inhibit intimal thickening when heme oxygenase is blocked [2]	Ability to promote re-endothelialization when heme oxygenase is blocked [2]	Ability to inhibit vascular smooth muscle cell proliferation when heme oxygenase is blocked [2]	Total aortic drug concentration ([3]; male, apoE−/−, mouse, in vivo, 5 months)	Bioavailability relative to probucol ([3]; mouse, in vivo)	Protection of aortic rings from HOCl-induced loss of response to ACh ([4]; washed, then 400 μM HOCl)	Total aortic drug concentration ([3]; apoE−/− mice, high fat diet 5 months, 1% probucol, 0.02% DTBP, 0.02% BP)	Concentration at which full protection from HOCl-induced loss of response to ACh was seen ([4]; 10 min pre-incubation, washed, then 400 μM HOCl)	Tissue cGMP in response to ACh ([4]; rings pre-treated with 100 μM, FIG. 7B)
CC(C)(C)c1cc(SSc2cc(C(C)(C)C)c(O)c(C(C)(C)C)c2)cc(C(C)(C)C)c1O [DTBP, 4,4′-dithiobis(2,6-di-tert-butyl-phenol)]	enhanced	enhanced	significantly enhanced	significantly decreased	completely prevented	completely prevented	completely prevented	7.1±1.4 nmol/mg protein	clearly superior bioavailability compared to probucol	protected aortic rings from HOCl-induced dysfunction when added in vitro	–	–	–
CC(C)(Sc1cc(C(C)(C)C)c(O)c(C(C)(C)C)c1)Sc1cc(C(C)(C)C)c(O)c(C(C)(C)C)c1 [probucol]	enhanced	enhanced	significantly enhanced	significantly decreased	completely prevented	completely prevented	completely prevented	–	–	protected the vessels from HOCl-induced loss of response to ACh in a concentration dependent manner	21.8±8.4 nmol/mg protein	100 µM	increased tissue content of cGMP
